{
  "source": "patent US20130053323A1",
  "about": "“METHODS AND USE RELATED TO HUMANIN AND HUMANIN-LIKE PEPTIDES” (priority 2009, published 2013)",
  "key": {"[1]": {"tested_on": "neuroblastoma (SK-N-BE(2)) tumor xenografts", "assay": "Doubling time of tumors in neuroblastoma xenografts", "type": "in vivo, human", "details": "combination bortezomib 0.8 mg/kg i.v. + HNG 1 μg/mouse/injection i.p.; p<0.05 vs vehicle"}, "FVB mice": {"tested_on": "FVB mice", "assay": "Dexa-induced growth retardation in FVB mice (tibia length, nose to anus length)", "type": "in vivo", "details": "HNG 1 μg/mice/day i.p. prior to Dexa 20 μg/mice/day; for rescue from Dexa-induced growth retardation (nose to anus length): 4 weeks", "experimental": "Four weeks old female mice FVB strain were obtained from Charles-River, Germany. The mice were kept in animal facility under a 12-h light, 12-h dark schedule with water ad libitum. After an adaptation period, mice were injected with Dexa dissolved in saline (20 μg/mice) subcutaneously in the neck every day for 1 week (short-term). Whereas, HNG (S14G) dissolved in saline (1 μg/mice) was injected intraperitoneally, 45 minutes prior to Dexa injection. The vehicle group received saline only. After one week of treatment/injections, animals were sacrificed and the back legs (femur and tibia) were collected. The skin and muscle from the tibia was removed and final length of tibia was measured by using electronic digital caliper as reported previously (Zaman, Menendez-Benito et al. 2007).\nIn another study, four weeks old female mice FVB strain (Charles-river, Germany) were injected with Dexa dissolved in saline (20 μg/mice) subcutaneously in the neck every day for four week (long-term). Whereas, HNG (S14G) dissolved in saline (1 μg/mice) was injected intraperitoneally, 45 minutes prior to Dexa injection. The vehicle group received saline only. The total body length (nose to anus) was measured (centimeters, cm) manually (blinded, the cadges were coded on the day of measurment), every week. After 4 weeks of treatment, animals were sacrificed by inhalation of CO2, tissue samples (both left and right leg) were collected for subsequent analysis.\nHNG injections were given […] prior to Dexa injections. […] After this, we next asked whether HNG (S14G) has any protective effects on bone growth after long-term treatment with Dexa (FIG. 3A). To investigate this, we treated mice for 4 weeks (group 2) with Dexa (20 μg/mice/day) and HNG (1 μg/mice/day). […] In FIG. 3B, total growth of the animals, nose to anus length (cm, manually) was analyzed in vehicle, Dexa, HNG (S14G) and Dexa/HNG (S14G) treated animals after four weeks of injections. **p<0.01 by 1-way ANOVA analyses, n=9-10/animals/group)."}, "[2]": {"tested_on": "medulloblastoma (D-283) xenograft", "assay": "Tumor volume in medulloblastoma xenograft in NMRI nude mice", "type": "in vivo, human", "details": "bortezomib + HNG i.p., until day 13", "experimental": "Male NMRI nu/nu mice (B&K Scanbur, Sweden or Taconic, Denmark) were xenografted at the age of 4 weeks (BW 18-25 g). The mice were anesthetized with 2% fluothane (Zeneca Ltd, Macclesfield, UK) supplemented with 50% N2O in oxygen. Tumor cells (NB (SH-SY5Y; 20×10^6 cells/side) or MB (D-283; 10×10^6 cells/side) in 0.1 ml medium) were implanted s.c. in the hindlegs of the animal using a 23 G needle. Tumors were measured every other day with a digital caliper, starting when they were palpable. At a tumor volume of 0.1 ml or 0.15 ml the animals were randomized into groups (1. Vehicle without tumors; 2. Vehicle with tumors; 3. HNG (S14G; 1 μg/mice); 4. CT (bortezomib; 0.8 mg/kg or 1 mg/kg); 5. HNG (S14G) 1 μg/mice+CT (bortezomib; 0.8 mg/kg or 1 mg/kg), stratified by their bodyweight and treatment started. Treatment regime was the same as in clinical settings with 2 injections/week; 2 weeks treatment (see FIG. 1, Group 1). HNG (S14G) was injected 40 min before the CT (bortezomib) injection. Tumor volume was calculated by the formula 0.44×length×width×width (Wassberg, Pahlman et al. 1997). […] The animal weight and general appearance were recorded every day throughout the experiments. […] After fixation, femur and tibia were measured with digital calipers and decalcified in 5% EDTA and then paraffin embedded. […]"}, "IL-6": {"tested_on": "IL-6", "assay": "IL-6 ELISA in culture medium of LPS-treated ATDC5 chondrocytes", "type": "cell-based, mice", "details": "LPS 10 μg/ml 24 hrs; combined Dexa and HNG (10 nM)", "experimental": "Mice chondrocyte cell line ATDC5 (1×10^6), was cultured in DMEM/Ham's F12 (Invitrogen) supplemented with 5% FCS, 10 μg/ml human transferrin and 3×10^−8 M (30 nM) sodium selenite until confluent (day 6), as previously reported (Owen, Miner et al. 2007). Thereafter, differentiation was induced by the addition of insulin (10 μg/ml; Sigma) and ascorbic acid (20 μg/ml) to the maintenance medium (differentiation medium). Incubation was at 37° C. in a humidified atmosphere of 95% air/5% CO2. The culture medium was changed every second day. On day 6, lipopolysacharide (LPS) 10 μg/ml […] Dexa (1 μM) and HNG (10 nM, S14G) were added in DMEM/Ham's F12 only and cells were incubated further 24 hrs. Next day, the cell culture medium was collected and analyzed for Intraleukin-6 (IL-6) cytokine levels by using commercially available ELISA kit (R&D Systems, Minneapolis, Minn.) according to instructions provided from manufacturer.\nFIG. 2C. […] Therefore, ATDC5 chondrocytes (mice) were cultured and treated with lipopolysacharide (LPS, 10 μg/ml) for 24 hrs to induce inflammation."}},
  "note": "Entries after “also recorded” stand apart in the source; their conditions may differ.",
  "data": [
    {"substance": "S14G-HN (MAPRGFSCLLLLTGEIDLPVKRRA) [HNG (S14G)]", "values": [
      {"measurement": "tumor doubling time", "setting": "[1]", "value": "significant reduction in tumor doubling time"},
      {"measurement": "rescue from Dexa-induced growth retardation (tibia length)", "setting": "FVB mice; 1 week", "value": "protected mice from Dexa-induced growth retardation; also recorded: rescued mice from Dexa-induced growth retardation"},
      {"measurement": "rescue from Dexa-induced growth retardation (nose to anus length)", "setting": "FVB mice", "value": "completely rescued mice from Dexa-induced growth retardation"},
      {"measurement": "rescue from Dexa-induced growth retardation (nose to anus length)", "setting": "FVB mice; listed as HNG (314G)", "value": "protected mice from Dexa-induced growth retardation"},
      {"measurement": "interference with anti-cancer effect of bortezomib (tumor volume)", "setting": "[2]", "value": "does not interfere with the anti-cancer effect"},
      {"measurement": "effect on the anti-inflammatory effect of Dexa (IL-6 levels)", "setting": "IL-6", "value": "did not alter the anti-inflammatory effects of Dexa"}
    ]}
  ]
}
